Experiments:
[1] = Microscope examination of drops for crystals (Leica DM LB, drop taken every 5 mins); format: physicochemical
Method: The DMI phase was made up for a total solution volume of 500 g so 0.600 g (actual weight) of betamethasone valerate was dissolved in 25.009 g of Arlasolve DMI. The rate of addition was 0.600 g added over 30 secs that is at a rate of 0.02 g/sec. The solution was then mixed at speed setting 1 on the Bibby magnetic stirrer. 1 drop of the solution was then taken every 5 mins. and examined under the Leica DM LB microscope with a 5× lens and L plan 10× eyepiece. A 100×1 mm^2 graticule was placed over the sample. The temperatures before and after addition of DMI were also recorded.
Whilst stirring the BMV/DMI solution at speed 1 on the Bibby magnetic stirrer, the propylene glycol (50.008 g) was poured in over approx. 12 secs, at a rate of 4.17 g/sec. 1 drop of the solution was then taken every 5 mins. and examined under a Leica DM LB microscope with a 5× lens and L plan 10× eyepiece. […] The temperatures before and after addition of propylene glycol were also recorded.
15.120 g of the active phase was added to 84.880 g of the aqueous phase over 10 secs (Total vol.=100.000 g), at a rate of 1.51 g/sec. […] The temperatures before and after addition of the active phase were also recorded. […]
84.882 g of the aqueous phase were added to 15.129 g of the active phase over 10 secs (Total vol.=100.011 g). […] The temperatures before and after addition of the aqueous phase were also recorded. […]

[2] = cited from earlier work
[3] = Preparation of Formulation 1: dissolution of BMV in dimethyl isosorbide and visual check for precipitation; format: physicochemical; conditions: Formulation 1 preparation
Method: • 1) Into vessel 1 was added the dimethyl isosorbide to which was slowly sprinkled the BMV. This was left mixing until visually dissolved. • 2) To vessel 1 was added the propylene glycol with stirring until homogenous. • 3) In vessel 2 was added the required amount of water and polysorbate 80. This was stirred until dissolved and homogenous. • 4) The 3Na.citrate.2H2O, anhyd. citric acid, imidazolidinyl urea and SDS were then added to vessel 2 and stirred until completely dissolved. • 5) The contents of vessel 2 were then poured into vessel 1 and stirred until homogenous.
A 1.1 kg batch of the 0.12% w/w Betamethasone valerate foam formulation above was then made up for a 3-month accelerated stability study using the same method: (Table 2)

time to fully dissolve into the dimethyl isosorbide ([1]; 0.600 g in 25.009 g Arlasolve DMI, stirrer speed 1): at least 30 minutes
effect of addition of propylene glycol on precipitating the betamethasone valerate ([1]; propylene glycol 50.008 g poured into BMV/DMI solution): no effect
dissolution of BMV into dimethyl isosorbide [3]: successfully dissolved
SMILES: CCCCC(=O)O[C@]1(C(=O)CO)[C@@H](C)C[C@H]2[C@@H]3CCC4=CC(=O)C=C[C@]4(C)[C@@]3(F)[C@@H](O)C[C@@]21C [Betamethasone valerate]
solubility in water [2]: practically insoluble

Source: patent US20080102039A1, “Betamethasone spray” (priority 2006, published 2008)
